From ChEMBL document CHEMBL1141049, “Synthesis and structure-activity relationship of N-alkyl Gly-boro-Pro inhibitors of DPP4, FAP, and DPP7” (Bioorg Med Chem Lett, 2005)

How the values were obtained:
Dipeptidyl peptidase 2 [1] = biological target: T1, Dipeptidyl peptidase 2 (Homo sapiens, UniProt Q9UHL4); assay: Inhibitory activity against human DPP7 using Ala-Pro-AMC in fluorometric assay
Dipeptidyl peptidase 4 = Dipeptidyl peptidase 4 (Homo sapiens, UniProt P27487); assay: Inhibitory activity against human DPP4 using Gly-Pro-AMC in fluorometric assay
[2] = biological target: Prolyl endopeptidase FAP (Homo sapiens) (UniProt Q12884); assay: Inhibition of human FAP using Lys-Pro-AMC in fluorometric assay at 33 uM
Dipeptidyl peptidase 2 [3] = biological target: T1, Dipeptidyl peptidase 2; assay: Inhibitory activity against human DPP7 using Ala-Pro-AMC in fluorometric assay; No inhibition
Prolyl endopeptidase FAP = biological target: T2, Prolyl endopeptidase FAP (Homo sapiens, UniProt Q12884); assay: Inhibitory activity against human FAP using Lys-Pro-AMC in fluorimetric assay; No inhibition
T2 sequence (Q12884 whole entry): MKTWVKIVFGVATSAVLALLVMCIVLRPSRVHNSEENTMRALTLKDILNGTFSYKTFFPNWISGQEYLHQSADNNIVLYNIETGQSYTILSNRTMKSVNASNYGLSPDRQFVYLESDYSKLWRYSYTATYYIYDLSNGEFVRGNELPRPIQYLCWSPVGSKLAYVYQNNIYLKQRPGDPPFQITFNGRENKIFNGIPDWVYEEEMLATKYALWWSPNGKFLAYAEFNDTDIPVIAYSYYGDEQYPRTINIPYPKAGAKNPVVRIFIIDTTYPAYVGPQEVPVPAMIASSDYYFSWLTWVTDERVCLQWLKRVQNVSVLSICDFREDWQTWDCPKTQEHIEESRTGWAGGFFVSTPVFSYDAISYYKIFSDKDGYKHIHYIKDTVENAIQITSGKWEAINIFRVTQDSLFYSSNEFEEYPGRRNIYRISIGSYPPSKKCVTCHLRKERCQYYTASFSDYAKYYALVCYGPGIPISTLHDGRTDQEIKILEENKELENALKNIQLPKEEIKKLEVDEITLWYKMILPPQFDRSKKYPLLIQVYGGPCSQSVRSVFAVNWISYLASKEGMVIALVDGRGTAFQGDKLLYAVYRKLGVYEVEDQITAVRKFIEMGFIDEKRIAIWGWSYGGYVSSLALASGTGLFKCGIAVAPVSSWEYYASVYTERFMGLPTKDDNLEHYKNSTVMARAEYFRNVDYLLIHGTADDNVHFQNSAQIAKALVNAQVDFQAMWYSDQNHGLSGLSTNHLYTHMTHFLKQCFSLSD

Chain of Dipeptidyl peptidase 4 (P27487 whole entry): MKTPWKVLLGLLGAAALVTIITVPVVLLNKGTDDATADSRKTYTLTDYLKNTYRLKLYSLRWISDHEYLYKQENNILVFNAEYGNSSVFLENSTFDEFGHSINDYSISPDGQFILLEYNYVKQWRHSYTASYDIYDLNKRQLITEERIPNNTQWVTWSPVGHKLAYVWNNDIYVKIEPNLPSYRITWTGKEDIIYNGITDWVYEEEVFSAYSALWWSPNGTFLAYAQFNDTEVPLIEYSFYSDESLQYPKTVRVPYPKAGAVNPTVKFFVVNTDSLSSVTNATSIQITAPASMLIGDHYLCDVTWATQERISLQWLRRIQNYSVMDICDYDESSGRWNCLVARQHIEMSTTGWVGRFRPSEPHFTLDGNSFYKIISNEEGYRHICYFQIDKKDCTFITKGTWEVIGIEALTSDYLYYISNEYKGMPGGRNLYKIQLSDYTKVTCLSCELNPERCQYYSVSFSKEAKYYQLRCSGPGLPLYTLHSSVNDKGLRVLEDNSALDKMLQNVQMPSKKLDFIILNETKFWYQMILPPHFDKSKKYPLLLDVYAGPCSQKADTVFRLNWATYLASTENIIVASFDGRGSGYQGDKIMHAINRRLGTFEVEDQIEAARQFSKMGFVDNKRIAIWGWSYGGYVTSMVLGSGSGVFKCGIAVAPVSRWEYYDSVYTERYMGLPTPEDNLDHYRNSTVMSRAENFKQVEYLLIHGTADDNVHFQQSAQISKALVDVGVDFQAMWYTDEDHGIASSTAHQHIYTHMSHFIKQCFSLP

SMILES	IC50 (Dipeptidyl peptidase 2 [1]) [nM]	IC50 (Dipeptidyl peptidase 4) [nM]	inhibition [2] [%]	IC50 (Dipeptidyl peptidase 2 [3])	IC50 (Prolyl endopeptidase FAP)
O=C(CNC1CCC1)N1CCC[C@H]1B(O)O	140	75			
O=C(CNC1CCCC1)N1CCC[C@H]1B(O)O	15	25			
CC12CC3(C)CC(C)(C1)CC(NCC(=O)N1CCC[C@@H]1B(O)O)(C2)C3	35	560			
O=C(CNC1C2CC3CC(C2)CC1C3)N1CCC[C@@H]1B(O)O (stereo partly specified)	120	12			
O=C(CNC1CCCCCC1)N1CCC[C@H]1B(O)O	1.8	7.8			
CCCCCC12CCC(NCC(=O)N3CCC[C@H]3B(O)O)(CC1)CC2	1	61			
O=C(CNC1CCCCC1)N1CCC[C@H]1B(O)O	4.1	27			
O=C(CNC12CC3CC(CC(C3)C1)C2)N1CCC[C@@H]1B(O)O	420	8			
CN(CC(=O)N1CCC[C@@H]1B(O)O)C1C2CC3CC(C2)CC1C3 (stereo partly specified)	4600	1600			
O=C(CNC1CCCCCCC1)N1CCC[C@H]1B(O)O	4	27			
O=C(CNC1CCCCCCCCC1)N1CCC[C@H]1B(O)O	2.2	58			
O=C(CNC1CC2CCCC1C2)N1CCC[C@H]1B(O)O (stereo partly specified)	8	25			
C[C@@H](N)C(=O)N1CCC[C@H]1B(O)O	6.3				
O=C(CNC1CC1)N1CCC[C@H]1B(O)O	570	130	30		
CC(C)[C@@H](NC1CCCCC1)C(=O)N1CCC[C@H]1B(O)O		16000		Not Active	Not Active
